System: HGADFN167 Lmna^G608G/G608G fibroblasts
Assay: RT-qPCR of senescence markers in human progeroid cells
Type: cell-based
Conditions: HGADFN167, 5 µM, 20 days
From the text: FIGURE 6 (A) Representative cropped immunoblots and progerin quantification in human Lmna^G608G/G608G fibroblasts. MW, molecular weight (in kDa) markers. […] (B) PROTAC 2 increases cell proliferation (upper panels) and decreases the number of misshapen nuclei (lower panels). White arrows highlight selected misshapen nuclei. (C) PROTAC 2 decreases senescence‐associated β‐galactosidase (SA‐βgal) activity, interleukin (IL) 6, p16 and p21 senescent markers. Bar graphs show mean±sem of 2 (SA‐βgal and p21) or 3 (IL‐6 and p16) independent experiments performed in triplicate. (D) PROTAC 2 decreases phosphorylated histone 2AX (pH2AX) and increases trimethylated histone 3 (H3K9Me3) levels. (E) PROTAC 2 increases the oxygen consumption rate (OCR), ATP production and the number of healthy mitochondria in human progeroid cells. Bar graphs show mean±sem of 2 independent experiments performed in duplicate. […] Data were analysed using one‐way ANOVA followed by Dunnett's post–hoc test vs vehicle (panel A) or vs G608G cells (panels B‐E). ^*, p < 0.05; ^**, p < 0.01; ^***, p < 0.001; ^****, p < 0.0001. […]
ferrocyanide, 0.6 mL 5 M NaCl, 0.2 mL 0.2 M MgCl2, (all from Sigma Aldrich) and 6.2 mL of deionized water in a total volume of 20 mL] in the dark in a humidified incubator at 37 °C for 24 h without CO2 supply. Then, an equal volume of the supernatant of each well was transferred to a new 96-well plate for fluorescence measurement. The resultant production of fluorescein was measured using a FluoStar Optima instrument (BMG Labtech) with an excitation of 485 nm and emission at 535 nm. […]
Total RNA was extracted by RNAeasy Mini Kit (Qiagen) according to the manufacturer instructions and subsequently quantified using the NanoPhotometer N60 (Implen). […] Quantitative real-time PCR was run in the QuantStudio 7FLEX (Applied Biosystems) system and results were normalized according to β-actin quantification.
Specific `in-house´ designed primers (see sequence below) were purchased from Metabion. The threshold cycle (Ct) was determined, and the relative gene expression was […]

CC1(C)Oc2cc3oc(=O)ccc3cc2C[C@@H]1OC(=O)CCCCCNc1cccc2c1C(=O)N(C1CCC(=O)NC1=O)C2=O (stereo partly drawn) [compound 2]
significantly reduced: IL‐6 senescent marker | p16 senescent marker | p21 senescent marker

— article PMC13252604, “First Generation Proteolysis Targeting Chimeras (PROTACs) for the Treatment of Progeria” (Advanced Science, 2026)
